Organism: Rattus norvegicus
Assay: DrugMatrix - Regimen: Daily Repeat
Format: toxicity, organism-based, Sprague-Dawley
Set-up: regimen Daily Repeat, gender Male, age 6-8 weeks
Settings: in vivo, po, route oral GAVAGE; for ABSOLUTE BASOPHIL / BASOPHIL / NUCLEATED RED BLOOD CELLS / ABSOLUTE EOSINOPHIL / ABSOLUTE LYMPHOCYTE / ABSOLUTE MONOCYTE / ABSOLUTE SEGMENTED NEUTROPHIL / EOSINOPHIL / ERYTHROCYTE COUNT / HEMATOCRIT / HEMOGLOBIN / LEUKOCYTE COUNT / LYMPHOCYTE / MEAN CORPUSCULAR HEMOGLOBIN / MEAN CORPUSCULAR HEMOGLOBIN CONCENTRATION / MEAN CORPUSCULAR VOLUME / MONOCYTE / NEUTROPHIL / PLATELET COUNT: tissue Blood; for TOTAL BILIRUBIN / ALANINE AMINOTRANSFERASE / ALBUMIN / ALKALINE PHOSPHATASE / ASPARTATE AMINOTRANSFERASE / BLOOD UREA NITROGEN / CARBON DIOXIDE / CHLORIDE / CHOLESTEROL / CREATINE PHOSPHOKINASE / CREATININE / GLUCOSE / LACTATE DEHYDROGENASE / LIPASE / PHOSPHORUS / POTASSIUM / SODIUM / TOTAL PROTEIN / URIC ACID: tissue Plasma
[1] = 0 mg/kg, 72 h, dose level Control, time 3 day, […]
[2] = 0 mg/kg, 120 h, dose level Control, time 5 day, […]
[3] = 10 mg/kg, 72 h, dose level Low, time 3 day, […]
[4] = 10 mg/kg, 120 h, dose level Low, time 5 day, […]
[5] = 44 mg/kg, 72 h, dose level Low, time 3 day, vehicle 100 % WATER
[6] = 44 mg/kg, 120 h, dose level Low, time 5 day, vehicle 100 % WATER

COc1ccc2cc([C@H](C)C(=O)O)ccc2c1 [NAPROXEN] was tested, and the “ABSOLUTE BASOPHIL” value [1] was 0 CELLS/uL, the BASOPHIL [1] was 0% and the “NUCLEATED RED BLOOD CELLS” value [1] was 0 /100WBC. The “TOTAL BILIRUBIN” value [1] was 0.2 mg/dL, the “ABSOLUTE BASOPHIL” value [2] was 0 CELLS/uL and the BASOPHIL [2] was 0%. For the same compound, the “ABSOLUTE BASOPHIL” value [3] was 0 CELLS/uL, the “ABSOLUTE EOSINOPHIL” value [3] was 0 CELLS/uL and the “ABSOLUTE LYMPHOCYTE” value [3] was 16953.33 CELLS/uL. For the same compound, the “ABSOLUTE MONOCYTE” value [3] was 484 CELLS/uL, the “ABSOLUTE SEGMENTED NEUTROPHIL” value [3] was 1296 CELLS/uL and the BASOPHIL [3] was 0%. The EOSINOPHIL [3] was 0%, the “ERYTHROCYTE COUNT” value [3] was 5.66 x10E6/uL and the HEMATOCRIT [3] was 36.03%. For the same compound, the HEMOGLOBIN [3] was 14.13 G/DL, the “LEUKOCYTE COUNT” value [3] was 18.73 x10E3/uL and the LYMPHOCYTE [3] was 90.67%. The “MEAN CORPUSCULAR HEMOGLOBIN” value [3] was 25.03 pg, the “MEAN CORPUSCULAR HEMOGLOBIN CONCENTRATION” value [3] was 39.23 G/DL and the “MEAN CORPUSCULAR VOLUME” value [3] was 63.73 fL. For the same compound, the MONOCYTE [3] was 2.67%, the NEUTROPHIL [3] was 6.67% and the “NUCLEATED RED BLOOD CELLS” value [3] was 0.33 /100WBC. The “PLATELET COUNT” value [3] was 1140 x10E3/uL, the “ALANINE AMINOTRANSFERASE” value [3] was 66 u/L and the ALBUMIN [3] was 3.9 G/DL. The “ALKALINE PHOSPHATASE” value [3] was 469.67 u/L, the “ASPARTATE AMINOTRANSFERASE” value [3] was 84 u/L and the “BLOOD UREA NITROGEN” value [3] was 9.67 mg/dL. For the same compound, the “CARBON DIOXIDE” value [3] was 20.33 mmol/L, the CHLORIDE [3] was 103.67 MEQ/L and the CHOLESTEROL [3] was 54.33 mg/dL. For the same compound, the “CREATINE PHOSPHOKINASE” value [3] was 295.33 u/L, the CREATININE [3] was 0.19 mg/dL and the GLUCOSE [3] was 187.67 mg/dL. For the same compound, the “LACTATE DEHYDROGENASE” value [3] was 313.33 u/L, the LIPASE [3] was 9.33 u/L and the PHOSPHORUS [3] was 12.03 mg/dL. The POTASSIUM [3] was 6.09 MEQ/L, the SODIUM [3] was 143.67 MEQ/L and the “TOTAL BILIRUBIN” value [3] was 0.1 mg/dL. For the same compound, the “TOTAL PROTEIN” value [3] was 5.87 G/DL, the “URIC ACID” value [3] was 2.03 mg/dL and the “ABSOLUTE BASOPHIL” value [4] was 0 CELLS/uL. The “ABSOLUTE EOSINOPHIL” value [4] was 321 CELLS/uL, the “ABSOLUTE LYMPHOCYTE” value [4] was 16605.33 CELLS/uL and the “ABSOLUTE MONOCYTE” value [4] was 680 CELLS/uL. For the same compound, the “ABSOLUTE SEGMENTED NEUTROPHIL” value [4] was 1493.67 CELLS/uL, the BASOPHIL [4] was 0% and the EOSINOPHIL [4] was 2%. For the same compound, the “ERYTHROCYTE COUNT” value [4] was 5.33 x10E6/uL, the HEMATOCRIT [4] was 34.4% and the HEMOGLOBIN [4] was 13.33 G/DL. The “LEUKOCYTE COUNT” value [4] was 19.1 x10E3/uL, the LYMPHOCYTE [4] was 86.33% and the “MEAN CORPUSCULAR HEMOGLOBIN” value [4] was 25.23 pg. For the same compound, the “MEAN CORPUSCULAR HEMOGLOBIN CONCENTRATION” value [4] was 38.8 G/DL, the “MEAN CORPUSCULAR VOLUME” value [4] was 65 fL and the MONOCYTE [4] was 3.67%. The NEUTROPHIL [4] was 8%, the “NUCLEATED RED BLOOD CELLS” value [4] was 0 /100WBC and the “PLATELET COUNT” value [4] was 1322.33 x10E3/uL. The “ALANINE AMINOTRANSFERASE” value [4] was 109.67 u/L, the ALBUMIN [4] was 3.7 G/DL and the “ALKALINE PHOSPHATASE” value [4] was 463.67 u/L. The “ASPARTATE AMINOTRANSFERASE” value [4] was 145.33 u/L, the “BLOOD UREA NITROGEN” value [4] was 8.33 mg/dL and the “CARBON DIOXIDE” value [4] was 19.33 mmol/L. For the same compound, the CHLORIDE [4] was 104 MEQ/L, the CHOLESTEROL [4] was 40.33 mg/dL and the “CREATINE PHOSPHOKINASE” value [4] was 1655.33 u/L. The CREATININE [4] was 0.18 mg/dL, the GLUCOSE [4] was 252 mg/dL and the “LACTATE DEHYDROGENASE” value [4] was 400 u/L. For the same compound, the LIPASE [4] was 9 u/L, the PHOSPHORUS [4] was 14.07 mg/dL and the POTASSIUM [4] was 6.26 MEQ/L. The SODIUM [4] was 143.27 MEQ/L, the “TOTAL BILIRUBIN” value [4] was 0.17 mg/dL and the “TOTAL PROTEIN” value [4] was 5.4 G/DL. The “URIC ACID” value [4] was 3.1 mg/dL.

In the case of Cn1c(=O)c2c(ncn2CC2OCCO2)n(C)c1=O [DOXOFYLLINE], the “ABSOLUTE BASOPHIL” value [5] was 0 CELLS/uL, the “ABSOLUTE EOSINOPHIL” value [5] was 159 CELLS/uL and the “ABSOLUTE LYMPHOCYTE” value [5] was 15168.33 CELLS/uL. The “ABSOLUTE MONOCYTE” value [5] was 106 CELLS/uL, the “ABSOLUTE SEGMENTED NEUTROPHIL” value [5] was 1466.67 CELLS/uL and the BASOPHIL [5] was 0%. For the same compound, the EOSINOPHIL [5] was 1%, the “ERYTHROCYTE COUNT” value [5] was 5.65 x10E6/uL and the HEMATOCRIT [5] was 36.33%. The HEMOGLOBIN [5] was 13.93 G/DL, the “LEUKOCYTE COUNT” value [5] was 16.9 x10E3/uL and the LYMPHOCYTE [5] was 89.67%. For the same compound, the “MEAN CORPUSCULAR HEMOGLOBIN” value [5] was 24.67 pg, the “MEAN CORPUSCULAR HEMOGLOBIN CONCENTRATION” value [5] was 38.37 G/DL and the “MEAN CORPUSCULAR VOLUME” value [5] was 64.23 fL. The MONOCYTE [5] was 0.67%, the NEUTROPHIL [5] was 8.67% and the “NUCLEATED RED BLOOD CELLS” value [5] was 0 /100WBC. The “PLATELET COUNT” value [5] was 1263 x10E3/uL, the “ALANINE AMINOTRANSFERASE” value [5] was 51.33 u/L and the ALBUMIN [5] was 4.3 G/DL. For the same compound, the “ALKALINE PHOSPHATASE” value [5] was 393.67 u/L, the “ASPARTATE AMINOTRANSFERASE” value [5] was 90.67 u/L and the “BLOOD UREA NITROGEN” value [5] was 15.67 mg/dL. The “CARBON DIOXIDE” value [5] was 27 mmol/L, the CHLORIDE [5] was 100.33 MEQ/L and the CHOLESTEROL [5] was 80.67 mg/dL. The “CREATINE PHOSPHOKINASE” value [5] was 250.67 u/L, the CREATININE [5] was 0.19 mg/dL and the GLUCOSE [5] was 159.33 mg/dL. For the same compound, the “LACTATE DEHYDROGENASE” value [5] was 324 u/L, the LIPASE [5] was 9.67 u/L and the PHOSPHORUS [5] was 14.4 mg/dL. For the same compound, the POTASSIUM [5] was 7.21 MEQ/L, the SODIUM [5] was 145.63 MEQ/L and the “TOTAL BILIRUBIN” value [5] was 0.17 mg/dL. For the same compound, the “TOTAL PROTEIN” value [5] was 5.9 G/DL, the “URIC ACID” value [5] was 1.83 mg/dL and the “ABSOLUTE BASOPHIL” value [6] was 0 CELLS/uL. For the same compound, the “ABSOLUTE EOSINOPHIL” value [6] was 0 CELLS/uL, the “ABSOLUTE LYMPHOCYTE” value [6] was 14176.33 CELLS/uL and the “ABSOLUTE MONOCYTE” value [6] was 62.33 CELLS/uL. The “ABSOLUTE SEGMENTED NEUTROPHIL” value [6] was 1228 CELLS/uL, the BASOPHIL [6] was 0% and the EOSINOPHIL [6] was 0%. For the same compound, the “ERYTHROCYTE COUNT” value [6] was 5.56 x10E6/uL, the HEMATOCRIT [6] was 36.17% and the HEMOGLOBIN [6] was 14.13 G/DL. The “LEUKOCYTE COUNT” value [6] was 15.47 x10E3/uL, the LYMPHOCYTE [6] was 92.33% and the “MEAN CORPUSCULAR HEMOGLOBIN” value [6] was 25.5 pg. For the same compound, the “MEAN CORPUSCULAR HEMOGLOBIN CONCENTRATION” value [6] was 39.1 G/DL, the “MEAN CORPUSCULAR VOLUME” value [6] was 65.23 fL and the MONOCYTE [6] was 0.33%. For the same compound, the NEUTROPHIL [6] was 7.33%, the “NUCLEATED RED BLOOD CELLS” value [6] was 0 /100WBC and the “PLATELET COUNT” value [6] was 1347.67 x10E3/uL. For the same compound, the “ALANINE AMINOTRANSFERASE” value [6] was 51 u/L, the ALBUMIN [6] was 4.17 G/DL and the “ALKALINE PHOSPHATASE” value [6] was 318.33 u/L. The “ASPARTATE AMINOTRANSFERASE” value [6] was 80 u/L, the “BLOOD UREA NITROGEN” value [6] was 17.33 mg/dL and the “CARBON DIOXIDE” value [6] was 29 mmol/L. The CHLORIDE [6] was 100 MEQ/L, the CHOLESTEROL [6] was 75.33 mg/dL and the “CREATINE PHOSPHOKINASE” value [6] was 240 u/L. For the same compound, the CREATININE [6] was 0.17 mg/dL, the GLUCOSE [6] was 165.33 mg/dL and the “LACTATE DEHYDROGENASE” value [6] was 290 u/L. For the same compound, the LIPASE [6] was 9.67 u/L, the PHOSPHORUS [6] was 12.97 mg/dL and the POTASSIUM [6] was 6.07 MEQ/L. The SODIUM [6] was 146.03 MEQ/L, the “TOTAL BILIRUBIN” value [6] was 0.17 mg/dL and the “TOTAL PROTEIN” value [6] was 6.07 G/DL. For the same compound, the “URIC ACID” value [6] was 1.5 mg/dL.

Reference: ChEMBL document CHEMBL3885881, “DrugMatrix”
